Experimental data as given in paper PMC4326127, “Collagen Inhibitory Peptide R1R2 Mediates Vascular Remodeling by Decreasing Inflammation and Smooth Muscle Cell Activation” (PLoS ONE, 2015).

Key:
[1] = tested on: binding of FN to collagen type I; test: Solid-phase binding assay (competitive ELISA) of FN to collagen; set-up: species or system human FN; rat collagen type I; details: 4 nM FN incubated with peptide at 4°C overnight, then on wells coated with 10 μg/ml collagen I overnight at 37°C; anti-FN/HRP, ABTS, A405
Experimental: Human FN and rat collagen type I for competitive ELISA were purchased from Sigma-Aldrich (St. Louis, MO).
The FN-peptide solutions were added to collagen or BSA-coated wells, and the plates were incubated overnight at 37°C. The wells were washed and a rabbit anti-FN antibody was added for 90 minutes at room temperature. Wells were washed and then incubated with a horseradish peroxidase-conjugated secondary antibody. After washing was completed, peroxidase activity was quantified using 2,2'-azino-bis-(3-ethylbenthiazoline-6-sulfonic acid). Measurements were done at 405 nm (A405) using a SpectraMax M5 microplate reader (Molecular Device, Sunnyvale, CA).
Bound FN was detected with an anti-FN antibody followed by HRP-conjugated secondary antibody, and ABTS as described in Methods. The absorbance at 405nm was quantitated.

[2] = tested on: left common carotid artery (flow-induced vascular remodeling); test: Morphometric analysis of carotid artery after complete common carotid ligation; assay type: in vivo, FVB/NJ (FVB) mice; details: periadventitial
Excerpt: (§1) Animals were anesthetized with isoflurane inhalation. The left common carotid artery was exposed, dissected free from the surrounding connective tissue and completely ligated with 6-0 silk suture just proximal to the carotid bifurcation. […] 4–10 mice were included in each experimental group.
5 groups of animals were processed for morphometric analysis. Mice were fixed with 10% formalin 7 or 14 days after the surgery. The common carotid arteries were harvested and embedded in paraffin.
(§2) For in vivo experiments, the data are shown as the mean ± SEM. For in vitro experiments, the data shown are the means ± SD of a representative experiment, at least 3 independent experiments were performed. One-way ANOVA with post-hoc testing were used for data analysis with GraphPad Prism software (GraphPad, San Diego, CA). If normality test failed, nonparametric Kruskal-Wallis test followed by Dunn's post-hoc test were used. P > 0.05 was not considered significant.

collagen type I = test: IHC for collagen type I in ligated carotid artery; assay type: in vivo, FVB/NJ (FVB) mice; details: 7 days after surgery; 20 μM peptide in pluronic gel; mean ± SEM; R1R2 n = 6, scrambled n = 6
Experimental: as §1
(§3) Paraffin sections selected from the first mm of the carotid artery in each group were used for immunohistochemistry (IHC). […] Sections were then incubated with appropriate biotinylated secondary antibodies followed by avidin-biotin immunoperoxidase system (Vector Laboratories, Burlingame, CA). Liquid DAB Substrate Chromogen system (Dako, Carpinteria, CA) was used for detection.
(§4) Quantitative IHC analysis was performed on digital images captured with a 20x objective by using Image-Pro Plus software. Data from 3–6 mice for each group were averaged, and the average values ± SEM were shown. For FN, collagen type I, SM-MHC and SM α-actin, color digital images were transformed into gray scale, and the sum of the optical densities from the intima+media area in each section was determined. […] The percent of positive cells is reported as the proliferation index. […] The intima+media region was traced manually. The percent of positively stained area in intima+media to the total traced area was assessed.
(§5) For in vivo experiments, the data are shown as the mean ± SEM. […]

collagen = test: Hydroxyproline assay of carotid collagen content; assay type: in vivo, FVB/NJ (FVB) mice; details: 14 days post-ligation; three carotid arteries pooled per group; colorimetric chloramine T; mean ± SEM, n = 3
Experimental: as §1
After reconstituting with water, samples were measured using a colorimetric chloramine T assay. Three independent experiments were performed for statistical analysis.
as §2

FN = test: IHC for FN in ligated carotid artery; assay type: in vivo, FVB/NJ (FVB) mice; details: mean ± SEM
Experimental: as §1, §3, §4, §2

[3] = tested on: smooth muscle α-actin (SMAA); test: IHC for smooth muscle α-actin in ligated carotid artery; assay type: in vivo, FVB/NJ (FVB) mice; details: 7 days post-ligation; mean ± SEM; scrambled n = 6, R1R2 n = 5 (sham 0.232 ± 0.011, n = 5)
Experimental: as §1, §3, §4, §5

CD45 (+) leukocytes = test: CD45 IHC, leukocyte infiltration in carotid intima-media; assay type: in vivo, FVB/NJ (FVB) mice; details: 7 days after ligation; percent of positively stained area; mean ± SEM; R1R2 n = 5, scrambled n = 6
Experimental: as §1, §3, §4, §2

VCAM-1 = VCAM-1 IHC in ligated carotid artery; assay type: in vivo, FVB/NJ (FVB) mice; details: 7 days after ligation; percent of positively stained area; mean ± SEM; R1R2 n = 7, control peptide n = 9
Experimental: as §1, §3, §4, §5

ICAM-1 = ICAM-1 IHC in ligated carotid artery; assay type: in vivo, FVB/NJ (FVB) mice; details: 7 days after ligation; percent of positively stained area; mean ± SEM; R1R2 n = 7, control peptide n = 8
Experimental: as §1, §3, §4, §5

A7r5 SMCs [4] = test: A7r5 SMC growth study; assay type: cell-based; details: 48hr; 10% FBS after serum starvation and 36 hours peptide treatment; hemocytometer, trypan blue; mean ± SD, n = 5
Experimental: (§6) Human umbilical vein endothelial cells (HUVECs) and A7r5 SMCs were provided by Resource Center (SB3, NSC 100-2325-B-080-001), National Research Program for Biopharmaceuticals (Hsinchu, Taiwan). HUVECs were maintained in M199 (Life Technologies, Carlsbad, CA) with 25U/ml heparin (Sigma-Aldrich, St. Louis, MO), 10% fetal bovine serum (FBS) and endothelial cell growth supplement (ECGS; Millipore, Billerica, MA). A7r5 SMCs were grown in Dulbecco’s Modified Eagle’s Medium (DMEM) containing high glucose, supplemented with 10% fetal bovine serum. Human U937 cells were grown in RPMI1640 with 10% FBS.
A7r5 cells and HUVECs were growth-arrested and then stimulated with 10% FBS or 10 ng/ml TNF-αovernight after serum starvation as indicated in the figure legend. Briefly, trypan blue-excluding cells were counted with a hemocytometer, and data were analyzed using GraphPad Prism Software (San Diego, CA) as in previous studies. A second observer performed a similar analysis to verify the initial findings.
as §2
Fig 6 R1R2 reduces SMC proliferation and migration. (A) A7r5 SMC growth study over 96 hours. After serum starvation and treatment with R1R2 or scrambled peptides for 36 hours, cells were stimulated with 10% FBS over 96 hours. Cells were counted at the indicated time in the figure (n = 5). (B) A7r5 SMCs were pretreated with R1R2 or scramble peptide for 36 hours. […] (C) Quantitation of SMC migration in the scratch wound healing assay was performed by subtracting the cell-free area 30 hours after PDGF-BB stimulation from the cell-free area in the beginning (n = 5). * indicates p<0.05 and ** p< 0.01.

A7r5 SMCs [5] = test: SMC migration, scrape wound assay; assay type: cell-based; details: A7r5 SMCs, 36 hours peptide pretreatment, 10 ng/ml PDGF-BB, 30 hours; mean ± SD, n = 3
Experimental: as §6
A scrape wound assay was used to assess the effect of R1R2 and scrambled peptides on SMC migration as described. Briefly, A7r5 SMCs were grown until 90% confluent, followed by serum starvation and treatment with R1R2 and scrambled peptides for 36 hours. Several scrape wounds were then performed across the dish with a sterile yellow pipet tip. We initiated the experiment with treatment of cells with 10 ng/ml PDGF-BB. Photographs of the wound area were taken immediately after PDGF-BB addition (0 hour) and 30 hours postwounding with an Olympus CKX-41 microscope connected to a camera. At least three photographs were taken per group at each time point. Wound areas were determined using Image-Pro Software (Media Cybernetics, MD). Measurement of migration was determined by subtracting the cell-free area 30 hours after PDGF-BB addition from the cell-free area in the beginning of scrape wounds.
For in vivo experiments, the data are shown as the mean ± SEM. For in vitro experiments, the data shown are the means ± SD of a representative experiment, at least 3 independent experiments were performed. […]
Fig 6 R1R2 reduces SMC proliferation and migration. […] Cells were counted at the indicated time in the figure (n = 5). […] (C) Quantitation of SMC migration in the scratch wound healing assay was performed by subtracting the cell-free area 30 hours after PDGF-BB stimulation from the cell-free area in the beginning (n = 5). * indicates p<0.05 and ** p< 0.01.

U937 cells / HUVECs [6] = test: Monocyte U937 adhesion to HUVECs; assay type: cell-based, human; details: HUVECs treated with 10 ng/ml TNF-α; calcein-AM U937 5x10^5 cells/well, 30 minutes at 37°C; fluorescence 485/535; mean ± SD
Experimental: as §2

U937 cells / HUVECs [7] = test: Monocyte U937 transendothelial migration assay; assay type: cell-based, human; details: HUVECs on 5um transwells, 10 ng/ml TNF-α; U937 1.5x10^5 cells/transwell, 1.5 hours at 37°C; fluorescence 485/535; mean ± SD
Experimental: as §2

[8] = 7 day after ligation, 20 μM peptide in 50 μl F-127 pluronic gel, mean ± SEM, scrambled n = 4, R1R2 n = 10
[9] = 14 day after ligation, 20 μM peptide in 50 μl F-127 pluronic gel, mean ± SEM, scrambled n = 4, R1R2 n = 9

Sequence: PGPGAEQPEQSKERNSQERGNGLALPGEELEGQEGGNKPSGENNGPPQGNLRGPLEG [scrambled peptide, reference compound]
- effect on FN-collagen type I binding [1]: had no effect on FN-collagen binding
- effect on neointimal formation ([2]; 7 and 14 days post-ligation, 20 μM peptide in pluronic gel, in words): have no effect on neointimal formation
- EEL Area [2, 8]: 91403 ± 3805 (n = 4) μm^2
- Lumen [2, 8]: 44901 ± 4552 (n = 4) μm^2
- EEL Area [2, 9]: 92240 ± 13572 (n = 4) μm^2
- Intima+Media [2, 9]: 65441 ± 11973 (n = 4) μm^2
- Lumen [2, 9]: 37551 ± 11976 (n = 4) μm^2
- collagen type I IHC intensity in intima-media area (collagen type I): 0.198 ± 0.007
- collagen content, hydroxyproline assay (collagen): 2.133 ± 0.284
- FN IHC intensity in intima-media area (FN; 7 days after ligation, R1R2 n = 6, scrambled n = 6): 0.144 ± 0.005
- FN IHC intensity in intima-media area (FN; 14 days after ligation, R1R2 n = 7, scrambled n = 7): 0.338 ± 0.016
- SMAA IHC staining in intima-media area [3]: 0.176 ± 0.004
- CD45 (+) area in intima-media (CD45 (+) leukocytes): 0.441 ± 0.049%
- VCAM-1 (+) area in intima-media (VCAM-1): 25.72 ± 1.966%
- ICAM-1 (+) area in intima-media (ICAM-1): 30.39 ± 3.016%
- A7r5 SMC growth, cell number (A7r5 SMCs [4]): 2.740 ± 0.688 x 10^5
- SMC migration (cell-free area at 0 h minus cell-free area at 30 hours) (A7r5 SMCs [5]): 313537 ± 66925
- U937 adhesion to HUVECs (U937 cells / HUVECs [6]): 259093 ± 14720 cells per cm^2
- U937 transendothelial migration (U937 cells / HUVECs [7]): 110055 ± 42517 cells per well
